{"source": "patent US11890316B2", "about": "“Oral octreotide therapy and contraceptive methods” (Amryt Endo, Inc., priority 2020, dated 2024)", "key": {"clinical [1]": {"assay": "clinical", "conditions": "female, human, in vivo, po"}, "clinical [2]": {"assay": "clinical", "conditions": "for Cmax, least squares geometric mean, Test / Cmax, least squares geometric mean, Reference: co-administered with HCTZ and metformin, in ng/mL; for effect of oral octreotide on the exposure to the probe drug (Cmax and AUC0-5): single 40 mg oral octreotide acetate vs placebo, first 5 h after dosing", "description": "This was a single-center, randomized, single-blind, placebo-controlled, crossover design study in healthy male and female subjects.\nEligible subjects were randomized in a 1:1 ratio to one of two treatment sequences of test conditions (i.e., Group 1 or Group 2); females were studied under 4 test conditions (A to D), whereas males were studied under 2 test conditions only (A and B), as shown in Table 1.\nThe study comprised a screening period, 4 treatment (dosing) periods for females and 2 treatment periods for males, and a follow-up period (approximately 7-10 days following the last dosing). There was a washout period of at least 14 days between dosing events.\nThe effect of […] on the absorption of estradiol was assessed by comparing Test Conditions C and D in up to 14 females. Blood sampling was conducted over the first 5 hours after administration.\nConfidence intervals (Cis) (90%) were constructed for the geometric mean rations (GMRs) (probe drug+oral octreotide to probe drug alone) of the 2 parameters using the natural log-transformed data and the 2 one-sided t-tests procedure. The GMRs and CIs were exponentiated back to the original scale. The effect of concurrent administration of oral octreotide was assessed from the GMRs and 90% Cis. The discrete parameter Tmax was compared among treatments using non-parametric analyses."}, "[3]": {"conditions": "both, human, in vivo, po, 100 mg"}, "[4]": {"conditions": "both, human, in vivo, po, 850 mg"}, "[5]": {"conditions": "R-warfarin with oral octreotide vs R-warfarin with placebo"}, "[6]": {"conditions": "S-warfarin with oral octreotide vs S-warfarin with placebo"}}}
{"smiles": "C#C[C@]1(O)CC[C@H]2[C@@H]3CCc4cc(O)ccc4[C@H]3CC[C@@]21C", "note": "[Ethinyl Estradiol, ethinyl estradiol]", "values": [{"measurement": "Cmax Geometric Mean Ratio, Estimate", "setting": "clinical [1]", "result": 92.05, "unit": "%"}, {"measurement": "Tmax", "setting": "clinical [1]", "result": 2.75, "unit": "h"}, {"measurement": "AUC(0-t)", "setting": "clinical [1]; 0.06 mg", "result": "0.37 ± 0.0802", "unit": "ng·h/mL"}, {"measurement": "Tmax", "setting": "clinical [1]; 0.06 mg", "result": 1.79, "unit": "h"}, {"measurement": "Cmax", "setting": "clinical [1]; 0.06 mg, Cmax", "result": "0.113 ± 0.0287", "unit": "ng/mL"}]}
{"smiles": "NS(=O)(=O)c1cc2c(cc1Cl)NCNS2(=O)=O", "note": "[Hydrochlorothiazide, hydrochlorothiazide]", "values": [{"measurement": "AUC(0-5) Geometric Mean Ratio, Estimate", "setting": "clinical [2]; both, human, in vivo, po", "result": 81.82, "unit": "%"}, {"measurement": "Cmax Geometric Mean Ratio, Estimate", "setting": "clinical [2]; both, human, in vivo, po", "result": 91.21, "unit": "%"}, {"measurement": "Tmax", "setting": "clinical [2]; both, human, in vivo, po", "result": 4, "unit": "h"}, {"measurement": "AUC(0-t)", "setting": "clinical [2]; [3]", "result": "2030 ± 392", "unit": "ng·h/mL"}, {"measurement": "Tmax", "setting": "clinical [2]; [3]", "result": 2.75, "unit": "h"}, {"measurement": "Cmax", "setting": "clinical [2]; both, human, in vivo, po, 100 mg, Cmax", "result": "655 ± 128", "unit": "ng/mL"}]}
{"smiles": "CN(C)C(=N)N=C(N)N", "note": "[Metformin, metformin]", "values": [{"measurement": "AUC(0-t)", "setting": "clinical [2]; [4]", "result": "5500 ± 1280", "unit": "ng·h/mL"}, {"measurement": "Cmax", "setting": "clinical [2]; [4]", "result": "1450 ± 398", "unit": "ng/mL"}]}
{"smiles": "CC(=O)C[C@H](c1ccccc1)c1c(O)c2ccccc2oc1=O", "note": "[R-Warfarin, R-warfarin]", "values": [{"measurement": "Cmax", "setting": "clinical [2]; R-warfarin in plasma, single 7.5 mg oral racemic warfarin, with single 40 mg (2x20 mg) oral octreotide acetate, healthy volunteers, mean ± SD", "result": "508 ± 97.0", "unit": "ng/mL"}, {"measurement": "Cmax", "setting": "clinical [2]; R-warfarin in plasma, single 7.5 mg oral racemic warfarin, without oral octreotide (placebo), healthy volunteers, mean ± SD", "result": "498 ± 82.0", "unit": "ng/mL"}, {"measurement": "Cmax, least squares geometric mean, Test", "setting": "clinical [2]; R-warfarin with oral octreotide 40 mg, 7.5 mg racemic warfarin", "result": 500.10}, {"measurement": "AUC(0-5) Geometric Mean Ratio, Estimate", "setting": "clinical [2]; [5]", "result": 105.17, "unit": "%"}, {"measurement": "Cmax Geometric Mean Ratio, Estimate", "setting": "clinical [2]; [5]", "result": 101.84, "unit": "%"}, {"measurement": "Cmax, least squares geometric mean, Reference", "setting": "clinical [2]; R-warfarin with placebo, 7.5 mg racemic warfarin", "result": 491.04}, {"measurement": "AUC(0-5)", "setting": "clinical [2]; R-warfarin, 7.5 mg racemic warfarin, with 40 mg oral octreotide acetate, mean ± SD", "result": "2012 ± 348", "unit": "ng·h/mL"}, {"measurement": "Tmax", "setting": "clinical [2]; R-warfarin, 7.5 mg racemic warfarin, with 40 mg oral octreotide acetate, median", "result": "2.00 (18) h"}, {"measurement": "AUC(0-5)", "setting": "clinical [2]; R-warfarin, 7.5 mg racemic warfarin, without oral octreotide (placebo), mean ± SD", "result": "1907 ± 280", "unit": "ng·h/mL"}, {"measurement": "Tmax", "setting": "clinical [2]; R-warfarin, 7.5 mg racemic warfarin, without oral octreotide (placebo), median", "result": "1.00 (18) h"}, {"measurement": "effect of oral octreotide on the exposure to the probe drug (Cmax and AUC0-5)", "setting": "clinical [2]; healthy volunteers", "result": "no significant effect"}]}
{"smiles": "CC(=O)C[C@@H](c1ccccc1)c1c(O)c2ccccc2oc1=O", "note": "[S-Warfarin, S-warfarin]", "values": [{"measurement": "Cmax", "setting": "clinical [2]; S-warfarin in plasma, single 7.5 mg oral racemic warfarin, with single 40 mg (2x20 mg) oral octreotide acetate, healthy volunteers, mean ± SD", "result": "492 ± 114.2", "unit": "ng/mL"}, {"measurement": "Cmax", "setting": "clinical [2]; S-warfarin in plasma, single 7.5 mg oral racemic warfarin, without oral octreotide (placebo), mean ± SD", "result": "503 ± 91.2", "unit": "ng/mL"}, {"measurement": "Cmax, least squares geometric mean, Test", "setting": "clinical [2]; S-warfarin with oral octreotide 40 mg, 7.5 mg racemic warfarin", "result": 480.09}, {"measurement": "AUC(0-5) Geometric Mean Ratio, Estimate", "setting": "clinical [2]; [6]", "result": 102.38, "unit": "%"}, {"measurement": "Cmax Geometric Mean Ratio, Estimate", "setting": "clinical [2]; [6]", "result": 97.06, "unit": "%"}, {"measurement": "Cmax, least squares geometric mean, Reference", "setting": "clinical [2]; S-warfarin with placebo, 7.5 mg racemic warfarin", "result": 494.64}, {"measurement": "AUC(0-5)", "setting": "clinical [2]; S-warfarin, 7.5 mg racemic warfarin, with 40 mg oral octreotide acetate, mean ± SD", "result": "1894 ± 330", "unit": "ng·h/mL"}, {"measurement": "Tmax", "setting": "clinical [2]; S-warfarin, 7.5 mg racemic warfarin, with 40 mg oral octreotide acetate, median", "result": "1.50 (18) h"}, {"measurement": "AUC(0-5)", "setting": "clinical [2]; S-warfarin, 7.5 mg racemic warfarin, without oral octreotide (placebo), mean ± SD", "result": "1846 ± 286", "unit": "ng·h/mL"}, {"measurement": "Tmax", "setting": "clinical [2]; S-warfarin, 7.5 mg racemic warfarin, without oral octreotide (placebo), median", "result": "1.00 (18) h"}, {"measurement": "effect of oral octreotide on the exposure to the probe drug (Cmax and AUC0-5)", "setting": "clinical [2]; healthy volunteers", "result": "no significant effect"}]}
